From ChEMBL document CHEMBL1146765, “Synthesis and biological activity of some structural modifications of pancratistatin” (2004) come the findings set out here.

One test concerns DU-145. The experiment in a line: Tested for growth inhibition activity against prostate DU-145 human cancer cell. It is filed as functional.
The test system of the next test is MCF7. The experiment in a line: Tested for growth inhibition activity against breast MCF-7 human cancer cell. It is filed as functional.
The subject of the next test is BXPC-3. Put plainly: Tested for growth inhibition activity against pancreas BXPC-3 human cancer cell. In kind it is functional.
For the next test, the system named is P388. The experiment in a line: Tested for growth inhibition activity against murine P388 lymphocytic leukemia. In kind it is functional, Mus musculus.
The subject of the next test is NCI-H460. The experiment in a line: Tested for growth inhibition activity against lung NCI-H460 human cancer cell. It is filed as functional.
The test system of another test is SF-268. Put plainly: Tested for growth inhibition activity against CNS SF-268 human cancer cell. It is filed as functional.
The next test relates to KM-20L2. Put plainly: Tested for growth inhibition activity against colon KM20L2 human cancer cell. It is filed as functional.

Structures are written as SMILES.

For the molecule `CC(=O)O[C@H]1[C@@H]2NC(=O)c3cc4c(cc3[C@H]2CC[C@H]1OC(C)=O)OCO4`, the Growth-inhibitory concentration in the test with DU-145 was over 10 µg/mL; in the test with MCF7 it was over 10 µg/mL; in the test on BXPC-3, over 10 µg/mL; with P388 it was 1.1 µg/mL; in the test with NCI-H460 it was over 10 µg/mL; in the test with SF-268, over 10 µg/mL. This molecule returned a Growth inhibitory concentration with KM-20L2 of over 10 µg/mL.

On to `O=C1N[C@H]2[C@H](O)[C@H](O)[C@@H](O)[C@H](O)[C@@H]2c2cc3c(c(O)c21)OCO3` [PANCRATISTATIN], for which the Growth-inhibitory concentration in the test on DU-145 came out at 0.016 µg/mL; in the test on MCF7, 0.032 µg/mL; in the test with BXPC-3, 0.028 µg/mL; with P388, 0.039 µg/mL; with NCI-H460, 0.048 µg/mL; with SF-268, 0.017 µg/mL. Further, in the test with KM-20L2, the Growth inhibitory concentration is 0.062 µg/mL.

As to `O=C1N[C@H]2[C@H](O)[C@H](O)[C@@H](O)[C@H](O)[C@@H]2c2cc3c(cc21)OCO3`, the Growth-inhibitory concentration with P388 stood at 0.44 µg/mL; in the test with NCI-H460 it was 0.29 µg/mL. Moreover, the Growth inhibitory concentration in the test with KM-20L2 amounted to 0.22 µg/mL.

Regarding `COc1ccc2c(c1)[C@@H]1[C@@H](NC2=O)[C@H](OC(C)=O)[C@H](OC(C)=O)[C@@H](OC(C)=O)[C@@H]1OC(C)=O`, the Growth-inhibitory concentration in the test on DU-145 was 6.7 µg/mL; in the test with MCF7, 4.6 µg/mL; with BXPC-3 it was over 10 µg/mL; in the test with P388, 2.1 µg/mL; in the test with NCI-H460 it was over 10 µg/mL; in the test on SF-268, over 10 µg/mL. The molecule also came in with a Growth inhibitory concentration in the test with KM-20L2 of over 10 µg/mL.

Consider `COc1ccc2c(c1)[C@H]1[C@@H](O)[C@H](O)[C@@H](O)[C@@H](O)[C@@H]1NC2=O`, for which the Growth-inhibitory concentration turned out to be 2.6 µg/mL with DU-145; 4.4 µg/mL in the test with MCF7; 4.9 µg/mL in the test on BXPC-3; 4.3 µg/mL in the test with P388; 2.8 µg/mL in the test with NCI-H460; 3.3 µg/mL in the test on SF-268. In addition, in the test with KM-20L2, the Growth inhibitory concentration came out at 3.6 µg/mL.

`COC(=O)N[C@H]1[C@H](OC(C)=O)[C@H](OC(C)=O)[C@@H](OC(C)=O)[C@H](OC(C)=O)[C@@H]1c1cccc(OC)c1`: the Growth-inhibitory concentration was over 10 µg/mL with DU-145; over 10 µg/mL in the test on MCF7; over 10 µg/mL in the test with BXPC-3; 19.3 µg/mL in the test on P388; over 10 µg/mL with NCI-H460; over 10 µg/mL in the test with SF-268. Further, in the test with KM-20L2, the Growth inhibitory concentration is over 10 µg/mL.

`O=C1N[C@@H]2C(=C[C@H](O)[C@@H](O)[C@H]2O)c2cc3c(c(O)c21)OCO3` [NARCICLASINE]: the Growth-inhibitory concentration with DU-145 was found to be 0.011 µg/mL; with MCF7 it was 0.019 µg/mL; in the test on BXPC-3, 0.026 µg/mL; with P388 it was 0.0012 µg/mL; with NCI-H460, 0.032 µg/mL; in the test on SF-268 it was 0.021 µg/mL. Besides, the Growth inhibitory concentration in the test with KM-20L2 was determined as 0.021 µg/mL.

Turning to `O=C1N[C@H]2[C@H](O)[C@H](O)CC[C@@H]2c2cc3c(cc21)OCO3`, the Growth-inhibitory concentration in the test on DU-145 was over 10 µg/mL; with MCF7, over 10 µg/mL; with BXPC-3, over 10 µg/mL; in the test on P388, 1.39 µg/mL; in the test on NCI-H460, over 10 µg/mL; in the test on SF-268 it was over 10 µg/mL. In addition, in the test with KM-20L2, the Growth inhibitory concentration is over 10 µg/mL.
